Assay results published in patent US12459954B2, “Crystalline form a of GLP-1 receptor agonist and preparation method therefor” (Hangzhou Zhongmei Huadong Pharmaceutical Co., Ltd., priority 2020, dated 2025).
Structures can show the parent of a compound that is named as a salt. Each block holds one compound with its values, some of them ahead of it.

Assays:
Type in all cases: physicochemical
[1] = Hygroscopic weight increment on placement (water absorption); conditions: for weight increase from absorption of water: after 5 days under certain (experimental) / similar conditions
[2] = Study of stability: crystal form stability by detecting the change of crystal form by XRPD
Experimental: X-ray powder dfraction (XRPD): Empyren; test conditions: power 40 kV×250 mA, CuKα radiation; scanning range 3˜40° (2θ); step width 0.02°; scanning speed 5/min; scanning method: continuous scanning.
(§1) The crystal form A of OAD2 was subject to a stability study. The crystal form A was tested stability in H2O, SGF (simulated gastric fluid), FeSSIF (simulated intestinal fluid in the feeding state) and FaSSIF (simulated intestinal fluid in the fasting state). The chemical stability was expressed in the HPLC purity. The crystal form stability was expressed by detecting the change of crystal form by XPRD.

[3] = Study of stability: chemical stability expressed in the HPLC purity
Experimental: as §1

[4] = as above; conditions: dihydrochloride
[5] = Placed at room temperature and room humidity, 28 d
[6] = Room temperature and room humidity ± 25° C./60% RH, 28 d + 7 d

weight increase from absorption of water ([1]; listed as OAD2 crystalline Form A): did not gain weight
weight increase from absorption of water ([1]; listed as crystal form A of OAD2): no measurable amount weight increase
moisture absorption (in words) ([1]; listed as crystal form A of the free base): not easy to absorb moisture
Change of crystal form ([2]; 25° C./75 ± 5% RH, 7 d): no
Change of crystal form ([2]; High temperature 60° C., 5 d): no
Change of crystal form ([2]; Initial, 0 d): no
Change of crystal form [2, 5]: no
Change of crystal form [2, 6]: no
Change of crystal form ([2]; Successively suspended in SGF/FeSSIF/FaSSIF/water, 1 d): no
change of crystal form (overall finding) ([2]; under various conditions): did not change the crystal form
HPLC purity (area %) ([3]; 25° C./75 ± 5% RH, 7 d): 98.90 area %
HPLC purity (area %) ([3]; High temperature 60° C., 5 d, listed as Crystal form A (2#)): 98.12 area %
HPLC purity (area %) ([3]; Initial, 0 d, listed as Crystal form A (1#)): 98.88 area %
HPLC purity (area %) ([3]; Initial, 0 d, listed as Crystal form A (2#)): 98.13 area %
HPLC purity (area %) [3, 5]: 98.69 area %
HPLC purity (area %) [3, 6]: 98.67 area %
chemical stability (overall finding) ([3]; overall result of Table 3): good chemical stability
SMILES: CC[C@@H](c1ccccc1)N1Cc2cc3c(cc2C[C@H]1C(=O)N[C@@H](Cc1ccc(-c2ccnc(C)c2C)cc1)C(=O)O)OC[C@H](c1ccc(OCc2ccc(Cl)c(Cl)c2)cc1)O3 [Crystal form A, (S)-2-(3S,8S)-3-(4-(3,4-dichlorobenzyloxy)phenyl-7-((S)-1-phenylpropyl)-2,3,6,7,8,9-hexahydro-[1,4]-dioxino[2,3-g]isoquinolin-8-ylformylamino)-3-(4-(2,3-dimethylpyridin-4-yl)phenyl)propionic acid]

weight increase from absorption of water ([1]; dihydrochloride): 8.3%
weight increase from absorption of water ([1]; listed as OAD2 dihydrochloride salt, dihydrochloride): 8.3%
moisture absorption (in words) ([1]; listed as dihydrochloride salt of OAD2, dihydrochloride): absorbs moisture
HPLC purity (area %) ([4]; High temperature 60° C., 5 d): 98.70 area %
HPLC purity (area %) ([4]; Initial, 0 d): 99.03 area %
HPLC purity (area %) ([3]; 25°C/75+5% RH, 5 d): 99.07 area %
SMILES: CC[C@@H](c1ccccc1)N1Cc2cc3c(cc2C[C@H]1C(=O)N[C@@H](Cc1ccc(-c2ccnc(C)c2C)cc1)C(=O)O)OC[C@H](c1ccc(OCc2ccc(Cl)c(Cl)c2)cc1)O3 [OAD2 dihydrochloride, (S)-2-(3S,8S)-3-(4-(3,4-dichlorobenzyloxy)phenyl-7-((S)-1-phenylpropyl)-2,3,6,7,8,9-hexahydro-[1,4]-dioxino[2,3-g]isoquinolin-8-ylformylamino)-3-(4-(2,3-dimethylpyridin-4-yl)phenyl)propionic acid dihydrochloride, reference compound]
